“Also recorded” adds a separate entry of the source.
Assays:
[1] = test system: LeuT (H7C/T515C); assay: smFRET imaging of Cy3/Cy5-labeled LeuT H7C/T515C; format: biochemical, Aquifex aeolicus; settings: saturating Na+ 200 mM
Experimental: (§1) The inventors acquired fluorescence data using a prism-based TIR microscope, as described (Munro, J. B. et al., Mol. Cell 25, 505-517 (2007)). All experiments were performed in buffer containing 50 mM Tris/MES (pH 7.5), 10% glycerol, 0.02% w/v DDM, 5 mM 2-mercaptoethanol and 200 mM salt (KCl or NaCl, as specified). The inventors used an oxygen scavenging environment (1 unit per μl glucose oxidase, 8 units per μl catalase, 0.1% v/v glucose) containing 1 mM cyclooctatetraene in all experiments to minimize photobleaching (Dave, R. et al., Biophys. J. 96, 2371-2381 (2009)).
(§2) The inventors incubated microfluidic imaging chambers passivated with a mixture of PEG and biotin-PEG (Blanchard, S. C. et al. Proc. Natl Acad. Sci. USA 101, 12893-12898 (2004)) with 0.8 μM streptavidin (Invitrogen), followed by 20 nM biotin-NTA (Biotium) charged with NiCl2. […] The inventors observed no significant surface immobilization, measured as described below, in the absence of biotin-NTA.
(§3) Cy3 fluorophores were excited by the evanescent wave generated by TIR of a single-frequency light source (Ventus 532 nm, Laser Quanta). […] The inventors acquired fluorescence data using MetaMorph software (Universal Imaging Corporation). […] FRET traces were calculated as: FRET=ICy5/(ICy3+ICy5), where ICy3 and ICy5 are the instantaneous Cy3 and Cy5 fluorescence intensities, respectively. […]

[2] = test system: LeuT; settings: read-out: half-maximum effective concentration (EC50) of Na+ for stimulating binding and transport; cited from earlier work
[3] = test system: LeuT (H7C/R86C); assay: smFRET imaging of surface-immobilized Cy3/Cy5-labeled LeuT (H7C/R86C), intracellular gate; format: biochemical, Aquifex aeolicus
Experimental: as §1
The inventors incubated microfluidic imaging chambers passivated with a mixture of PEG and biotin-PEG (Blanchard, S. C. et al. Proc. Natl Acad. Sci. USA 101, 12893-12898 (2004)) with 0.8 μM streptavidin (Invitrogen), followed by 20 nM biotin-NTA (Biotium) charged with NiCl2. Cy3/Cy5-labeled His10-LeuT molecules (2 nM) were surface-immobilized to surface-bound Ni2+. The inventors observed no significant surface immobilization, measured as described below, in the absence of biotin-NTA.
Cy3 fluorophores were excited by the evanescent wave generated by TIR of a single-frequency light source (Ventus 532 nm, Laser Quanta). Photons emitted from Cy3 and Cy5 were collected using a 1.2 NA 60× water-immersion objective (Nikon), and optical treatments were used to spatially separate Cy3 and Cy5 frequencies onto a cooled, back-thinned CCD (Cascade 128, Photometrics). The inventors acquired fluorescence data using MetaMorph software (Universal Imaging Corporation). The inventors corrected spectral bleed-through of Cy3 intensity on the acceptor channel by subtracting 7.5% of donor signal from the acceptor. FRET traces were calculated as: FRET=ICy5/(ICy3+ICy5), where ICy3 and ICy5 are the instantaneous Cy3 and Cy5 fluorescence intensities, respectively. Using an established procedure (Roy, et al., Nature Methods 5: 507-516 (2008)), The inventors estimated the ratio of donor and acceptor quantum yields and detection efficiencies (γ) to be close to 1; therefore, no correction was applied.
The inventors analyzed fluorescence and FRET traces using automated analysis, in which traces were selected using algorithms implemented in MATLAB (MathWorks). Algorithms for analyzing smFRET data are found in U.S. 61/437,203, which is herein incorporated by reference in its entirety. Properties were calculated for each trace, and selected for further analysis if they met the following specific criteria: a single photobleaching event, at least 8:1 signal-to-background noise ratio (SNR), <4 donor fluorophore blinking events, a donor-to-acceptor Pearson's correlation coefficient <0.5, and a lifetime of at least 15 frames showing FRET ≥0.15. The inventors detected photobleaching events in each trace as a significant (≥3 standard deviations of background noise) drop in the median-filtered (window size of 9 frames) total fluorescence intensity (ITotal=ICy3+ICy5) without a return to the previous average level. Events in which fluorescence intensity did return were marked as blinking events. Signal-to-noise ratios are calculated as total intensity relative to the standard deviation of background noise: ITotal/stdev(ICy3)+stdev(ICy5). The inventors excluded data points corresponding to donor fluorophore dark states from calculation of the correlation coefficient.
To simplify the presentation of FRET histograms, The inventors removed zero-FRET states following idealization of the data to a two-state model (E=0.1±0.1 and E=0.4±0.1) using a segmental k-means algorithm (Qin, F., Biophys. J. 86, 1488-1501 (2004)). Error bars in FRET histograms represent the standard deviation of 100 bootstrap samples of each set of FRET traces examined.
The inventors estimated kinetic parameters for biotinylated H7C-R86C-LeuT samples by manually selecting traces showing at least one transition between clearly distinct states with anti-correlated changes in donor and acceptor fluorescence intensity in each transition. […]

[4] = target: Y335A dopamine transporter (Homo sapiens, UniProt Q01959, Y335A); settings: Y335A dopamine transporter mutant; cited from earlier work
Chain of Y335A dopamine transporter (Q01959 whole entry Y335A): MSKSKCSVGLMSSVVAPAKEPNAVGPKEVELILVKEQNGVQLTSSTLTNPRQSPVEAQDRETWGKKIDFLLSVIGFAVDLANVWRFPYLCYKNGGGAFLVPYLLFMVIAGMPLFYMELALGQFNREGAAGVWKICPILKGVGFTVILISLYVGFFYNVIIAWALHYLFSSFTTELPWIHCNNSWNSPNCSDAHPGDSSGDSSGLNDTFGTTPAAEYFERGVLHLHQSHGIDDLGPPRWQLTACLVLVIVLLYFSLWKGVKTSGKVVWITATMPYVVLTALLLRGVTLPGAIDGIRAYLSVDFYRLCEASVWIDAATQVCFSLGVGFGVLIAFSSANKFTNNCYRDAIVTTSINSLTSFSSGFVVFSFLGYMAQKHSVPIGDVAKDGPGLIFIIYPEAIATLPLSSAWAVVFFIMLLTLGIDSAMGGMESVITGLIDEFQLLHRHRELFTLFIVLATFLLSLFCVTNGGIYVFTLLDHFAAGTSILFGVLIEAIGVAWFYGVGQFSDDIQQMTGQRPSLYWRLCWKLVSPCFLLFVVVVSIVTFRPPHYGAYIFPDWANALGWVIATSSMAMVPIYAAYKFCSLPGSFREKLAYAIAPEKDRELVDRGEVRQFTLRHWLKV

[5] = test system: LeuT; assay: 3H-Ala transport in LeuT proteoliposomes; format: biochemical, Aquifex aeolicus; settings: in the presence of Li+ (150 mM)
Experimental: Proteoliposomes were prepared as described (Shi, L. et al., Mol. Cell 30, 667-677 (2008)). The accumulation of ^3H-[…].4 Ci mmol^-1; Moravek) was measured at 23° C. in assay buffer comprised of 150/50 mM Tris/Mes (pH 8.5) and 50 mM NaCl/150 mM LiCl. The reaction was quenched by the addition of ice-cold assay buffer without radiotracer and the proteoliposomes were collected on GF75 glass fiber filters (Advantec) before the determination of the accumulated cpm by liquid scintillation counting.

[6] = test system: LeuT; assay: Scintillation proximity assay (SPA) binding of 3H-alanine to purified LeuT variants; parameters: species or system Aquifex aeolicus; settings: 50 mM Na+
Experimental: Scintillation proximity-based binding studies. Binding of ^3H-leucine or ^3H-alanine (146 Ci/mmol and 49.4 Ci/mmol, respectively; Moravek) to purified LeuT-variants was measured with the scintillation proximity assay (SPA) as described (Shi, L. et al., Mol. Cell 30, 667-677 (2008)) with 25 ng of purified protein per assay in buffer composed of 150 mM Tris/Mes, pH 7.5/50 mM NaCl/1 mM TCEP/0.1% n-dodecyl-β-D-maltopyranoside or 50 mM Tris/Mes, pH 7.5/150 mM LiCl/1 mM TCEP/0.1% n-dodecyl-β-D-maltopyranoside. To determine the molar ratio of Leu (or Ala)-to LeuT binding samples were incubated with increasing concentrations of radioligand and measured in the SPA cpm mode of the MircoBeta™ counter (Perkin Elmer). The efficiency of detection was calculated with standard curves of known concentrations of ^3H-Leu or ^3H-Ala. The standard curves were used to transform cpm into the amount of bound substrate (Shi, L. et al., Mol. Cell 30, 667-677 (2008)). The amount of LeuT in the SPA assays was determined (Schaffner, W. et al., Anal. Biochem. 56, 502-514 (1973)). SPA-based binding studies using 2 μM [^22Na]Cl (1017 mCi/mg; Perkin Elmer) were performed in 200 Tris/Mes, pH 7.5/1 mM TCEP/0.1% n-dodecyl-β-D-maltopyranoside in the presence of 0-50 mM NaCl (equimolar replacement of Tris/Mes to obtain a total molarity of 200 mM) (Shi, L. et al., Mol. Cell 30, 667-677 (2008)). […]

[7] = test system: LeuT (K239C/H480C); assay: smFRET imaging of extracellularly labeled LeuT K239C/H480C; format: biochemical, Aquifex aeolicus; settings: 0.5 mM CMI; increased from ~0.49 without CMI
Experimental: as §1, §2, §3

[8] = 10 mM Na+ and 250 μM Ala, 0.1 mM CMI or 35 mM OG

Structure (SMILES): [Na+] [Na^+]
- FRET value of stabilized higher-FRET state [1]: ~0.73
- EC50 [2]: ~10 mM
- preferential stabilization of the inward-closed state ([3]; Na+ titration): ~7 fold
- EC50 ([3]; hidden Markov modeling of Na+ titration, read-out: EC50 for altering distribution of low- and high-FRET LeuT conformations): 10.9 mM
- dwell time of high FRET state ([3]; high Na+ concentrations, limited by photobleaching): > 76 s
- FRET value of stabilized higher-FRET state ([3]; saturating Na+ 200 mM, H7C/R86C): ~0.77

Structure (SMILES): [Zn] [zinc]
- effect on transport [4]: markedly enhances transport

Structure (SMILES): CC(C)C[C@H](N)C(=O)O [Leu, L-leucine]
- further changes in FRET upon addition of leucine ([3]; 20 μM leucine at 200 mM Na+): did not observe further changes in FRET
- stabilization of closed intracellular gate state ([3]; 2 mM Na+, Leu titration): ~3.5 fold
- effect of leucine binding on low-/high-FRET populations ([3]; 5 mM Na+, 0.2-20 μM leucine): redistributed the two populations in a concentration-dependent fashion in favour of higher-FRET configurations
- FRET value of high-FRET configurations reached by leucine-dependent isomerization ([3]; LeuT-R5A, 7/86 pair, 200 mM NaCl and 20 μM leucine): ~0.77
- raising of energy barrier to motion ([3]; as much as, similar to Na+ (50 mM) alone): ~0.96 kcal/mol

Structure (SMILES): C[C@H](N)C(=O)O [Ala, L-alanine]
- substrate transport [5]: not observed
- Ala binding to the S2 site ([6]; F253A mutant): bound stoichiometrically
- Ala binding to the S1 site ([6]; L400S mutant): stoichiometric
- effect on FRET distribution ([3]; 2 mM Na+, increasing Ala concentrations): did not shift the FRET distribution toward the closed state
- enhancement of transition rates between inward-open and inward-closed states ([3]; 2 mM Na+, as much as): ~4 fold
- effect on lifetimes of inward-open or inward-closed states ([3]; Ala alone, nominal absence of Na+): not significantly affected
- effect on intracellular gating dynamics ([3]; F253A (S1 site) mutant, 10 mM Na+, 250 μM Ala): failed to increase intracellular gating dynamics
- effect on intracellular gating dynamics ([3]; L400S (S2 site) mutant, 10 mM Na+, 250 μM Ala): no increase in intracellular gating dynamics was observed
- effect on intracellular gating dynamics ([3]; Li+ in place of Na+ (40 mM Li+), 250 μM Ala): failed to accelerate intracellular gating dynamics
- reduction in the rate of gate opening, kclosed-open ([3]; Li+ in place of Na+, 250 μM Ala): ~2 fold
- lowering of activation barrier between open and closed states (ΔΔG) ([3]; as much as, conditions of the experiment): ~0.72 kcal/mol

Structure (SMILES): CN(C)CCCN1c2ccccc2CCc2ccc(Cl)cc21 [CMI, clomipramine]
- FRET between K239C/H480C labels with inhibitor bound [7]: ~0.53
- FRET value of stabilized high-FRET state ([3]; 0.5 mM CMI, 200 mM KCl, wild-type H7C/R86C): ~0.69
- effect on intracellular gating dynamics [3, 8]: essentially eliminated the occurrence of intracellular gate opening; also recorded: inhibits these conformational dynamics

Structure (SMILES): CCCCCCCCO[C@@H]1O[C@H](CO)[C@@H](O)[C@H](O)[C@H]1O [OG, n-octyl-β-D-glucopyranoside]
- effect on intracellular gating dynamics [3, 8]: inhibited intracellular gating dynamics

From US10859569B2, “SmFRET with membrane proteins” (Cornell University, priority 2010, dated 2020)
